This is an account of results in ChEMBL document CHEMBL1152391, “Development of a selective and potent radioactive ligand for histamine H(3) receptors: A compound potentially useful for receptor occupancy studies” (Bioorg Med Chem Lett, 2009).

Series [1] in a line: Plasma concentration in Sprague-Dawley rat at 10 mg/kg, po after 2 hrs. The series is classed as ADME, organism-based. Set-up: dose 10 mg/kg, route oral.
Series [2] relates to Brain. The series is described as follows: Drug level in Sprague-Dawley rat brain at 10 mg/kg, po after 2 hrs. It is filed as ADME, organism-based. Set-up: dose 10 mg/kg, route oral. As to conditions: in vivo.
A short description of series [3]: Drug level in Sprague-Dawley rat cerebrospinal fluid at 10 mg/kg, po after 2 hrs. Set-up: dose 10 mg/kg, route oral. To be noted: read-out: Drug uptake. The series is classed as ADME, organism-based.
For series [4], the target named is T1, Histamine H3 receptor (Mus musculus, UniProt P58406). The series is described as follows: Inverse agonist activity at mouse histamine H3 receptor overexpressed in HEK293 cells by [35S]GTPgammaS binding assay. It is filed as functional, cell-based.
The target in series [5] is Histamine H3 receptor (Rattus norvegicus, UniProt Q9QYN8). In words: Binding affinity to rat histamine H3 receptor by competitive binding assay.
Series [6] addresses Histamine H1 receptor (Homo sapiens, UniProt P35367). In words: Inhibition of histamine H1 receptor.
The target of series [7] is Histamine H2 receptor (Homo sapiens, UniProt P25021). The series is described as follows: Inhibition of histamine H2 receptor.
The target in series [8] is Histamine H4 receptor (Homo sapiens, UniProt Q9H3N8). In words: Inhibition of histamine H4 receptor.
The test system of series [9] is Brain. The series is described as follows: Ex vivo binding affinity to histamine H3 receptor in wild type mouse coronal brain sections at 3 nM after 30 mins by receptor occupancy assay. As to conditions: tested as the 3H-labelled form. It is filed as functional, tissue-based.
For series [10], the target named is Histamine H3 receptor (Mus musculus) (UniProt P58406). In words: Inverse agonist activity at mouse histamine H3 receptor overexpressed in HEK293 cells by [35S]GTPgammaS binding assay relative to basal level. The series is classed as functional, cell-based. As to conditions: concentration not given here. (In general: Binding of GTPγS marks nucleotide exchange on a G protein.)

Series [11] has as its target T1, Histamine H3 receptor. In words: biochemical.
The nature of series [12]: Lipophilicity, log d at pH 7.4. It is filed as physicochemical. To be noted: buffer.
Series [13] deals with T1, Histamine H3 receptor. The series is described as follows: Binding affinity to mouse histamine H3 receptor overexpressed in HEK293 cells. The series is classed as cell-based.
The target in series [14] is T1, Histamine H3 receptor. The series is described as follows: Binding affinity to histamine H3 receptor in wild type mouse brain membrane. The series is classed as cell membranes.

Calls of active or inactive are those of the source. The rule behind the calls is not given here. Bounds are passed on as bounds.

T1 sequence (P58406 whole entry): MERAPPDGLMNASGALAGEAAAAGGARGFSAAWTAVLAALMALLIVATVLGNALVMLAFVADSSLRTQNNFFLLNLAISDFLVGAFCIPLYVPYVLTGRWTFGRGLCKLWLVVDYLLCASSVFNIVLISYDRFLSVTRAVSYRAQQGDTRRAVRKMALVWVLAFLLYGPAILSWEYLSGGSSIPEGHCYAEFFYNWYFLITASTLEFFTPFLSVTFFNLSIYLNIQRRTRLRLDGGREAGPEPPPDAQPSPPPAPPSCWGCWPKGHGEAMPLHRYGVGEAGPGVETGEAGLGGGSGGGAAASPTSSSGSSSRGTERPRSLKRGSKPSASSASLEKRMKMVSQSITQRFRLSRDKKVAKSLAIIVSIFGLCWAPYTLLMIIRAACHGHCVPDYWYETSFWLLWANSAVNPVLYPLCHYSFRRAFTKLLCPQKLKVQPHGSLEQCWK
Histamine H3 receptor (Mus musculus), sequence (P58406 whole entry): as above
Histamine H3 receptor (Rattus norvegicus, UniProt Q9QYN8), sequence (Q9QYN8 whole entry): as the sequence (P58406 whole entry) above, with A15T, T286A, G290A, H387R, V389I counted along it
Histamine H4 receptor, sequence (Q9H3N8 whole entry): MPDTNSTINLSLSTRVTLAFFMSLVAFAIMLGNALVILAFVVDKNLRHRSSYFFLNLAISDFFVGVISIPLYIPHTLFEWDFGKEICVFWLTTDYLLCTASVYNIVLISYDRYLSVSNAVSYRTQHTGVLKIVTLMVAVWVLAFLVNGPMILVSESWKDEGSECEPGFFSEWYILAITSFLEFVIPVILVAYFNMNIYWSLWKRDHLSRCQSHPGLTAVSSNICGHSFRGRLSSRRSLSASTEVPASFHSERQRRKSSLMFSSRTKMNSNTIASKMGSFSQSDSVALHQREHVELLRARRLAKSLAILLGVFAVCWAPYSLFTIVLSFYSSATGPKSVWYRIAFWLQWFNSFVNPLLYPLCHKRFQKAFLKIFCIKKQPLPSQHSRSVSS
Histamine H2 receptor, sequence (P25021 whole entry): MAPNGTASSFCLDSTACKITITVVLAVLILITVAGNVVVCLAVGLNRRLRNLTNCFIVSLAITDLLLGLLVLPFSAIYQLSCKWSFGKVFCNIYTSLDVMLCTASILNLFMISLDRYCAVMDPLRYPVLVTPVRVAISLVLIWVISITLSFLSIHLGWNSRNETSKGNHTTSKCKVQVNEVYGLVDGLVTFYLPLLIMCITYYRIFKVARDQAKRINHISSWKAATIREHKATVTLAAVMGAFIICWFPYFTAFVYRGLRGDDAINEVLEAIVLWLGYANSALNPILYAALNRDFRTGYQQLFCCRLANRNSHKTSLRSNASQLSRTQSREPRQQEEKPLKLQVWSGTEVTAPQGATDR
Histamine H1 receptor, sequence (P35367 whole entry): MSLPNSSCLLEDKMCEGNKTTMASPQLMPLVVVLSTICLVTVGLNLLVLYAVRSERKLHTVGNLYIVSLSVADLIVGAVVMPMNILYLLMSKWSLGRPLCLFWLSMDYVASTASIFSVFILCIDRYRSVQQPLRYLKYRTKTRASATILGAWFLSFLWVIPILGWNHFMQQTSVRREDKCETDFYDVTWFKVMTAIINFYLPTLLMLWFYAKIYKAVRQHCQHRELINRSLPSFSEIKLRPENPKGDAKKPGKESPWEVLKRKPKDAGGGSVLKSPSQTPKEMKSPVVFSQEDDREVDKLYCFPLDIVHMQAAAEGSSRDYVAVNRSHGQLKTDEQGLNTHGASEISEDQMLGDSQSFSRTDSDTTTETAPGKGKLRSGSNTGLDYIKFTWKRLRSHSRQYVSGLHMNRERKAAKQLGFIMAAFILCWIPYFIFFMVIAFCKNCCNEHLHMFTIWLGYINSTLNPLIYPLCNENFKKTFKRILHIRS

One may read the EC50 as the midpoint of the concentration-response curve. Low values mean an effect from little substance, high ones a need for much substance. One may read the Ki as the dissociation constant of the complex between target and ligand, obtained from inhibition or displacement. The IC50 is the concentration needed to halve the response being measured. Read a low IC50 as higher potency. In general, inhibition refers to the drop in the measured response relative to a control, in per cent. A high value points to a response far below the control. For the molecule `Cn1c(-c2ccc(OCCCN3CCCC3)cc2)nc2ccccc2c1=O`, the concentration at 2 h is 1360 nM in series [1] and 134 nM in [3]. The molecule also returned a Drug uptake in series [2] of 2.22 nmol/g. For the same molecule, the EC50 in series [4] is 9.6 nM. The Ki was found to be 12 nM in series [5] and 2.4 nM in series [11]. For the same molecule, the IC50 in [6], in [7] and in series [8] was > 10 µM throughout. Moreover, the outcome in series [9] was Active. Also, the inhibition in series [10] was 24%.

Molecule `NCCc1c[nH]cn1` [HISTAMINE] returned a Ki in series [11] of 68 nM.

The molecule `S=C(NC1CCCCC1)N1CCC(c2cnc[nH]2)CC1` [THIOPERAMIDE] had an EC50 in series [4] of 11 nM. In [10], this molecule displayed an inhibition of 27%. The Ki in series [11] turned out to be 4.8 nM.

Molecule `CNCCc1c[nH]cn1` gave a Ki in series [11] of 19 nM.

Turning to `NC(=NCc1ccc(Cl)cc1)SCCCc1cnc[nH]1` [CLOBENPROPIT], the EC50 in series [4] came out at 1.7 nM.

Broadly, the logD is lipophilicity at a set pH, counting ionised and neutral species. A higher logD goes with higher lipophilicity. What is called Kd is the concentration at which binding is half-saturated. Lower therefore signals a tighter complex. Consider `[3H]C([3H])([3H])n1c(-c2ccc(OCCCN3CCCC3)cc2)nc2ccccc2c1=O`, for which the logD in series [12] was found to be 1.2. Further, the Kd in series [13] is 2.6 nM; in series [14], 3.1 nM.

Regarding `N=C(NCc1ccc(Cl)cc1)SCCCc1c[nH]cn1`, in series [10], the inhibition was determined as 14%.

As to `N=C(N)SCCc1cnc[nH]1` [IMETIT], the Ki in series [11] was 2 nM.
